Test results: US20200197472A1, “COSMETIC COMPOSITIONS” (Mary Kay Inc., priority 2018, published 2020)

Experiments:
Format in all cases: cell-based
hyaluronic acid = experiment: Production of hyaluronic acid in adult human dermal fibroblasts (HDFa), ELISA; conditions: for Hyaluronic Acid Production, Activity compared to control: HDFa cells, 24 hours
Method: Changes in the production of hyaluronic acid in human dermal fibroblasts due to each of Centella asiatica meristem cell culture, Alpinia galangal leaf extract, tripeptide-1, and TAUT were measured. Hyaluronic acid (HA) is a polysaccharide involved in stabilization of the structure of the matrix and is involved in providing turgor pressure to tissue and cells. As one non-limiting example, HA production in treated and non-treated adult human dermal fibroblasts (HDFa) cells was determined using the Hyaluronan DuoSet ELISA kit from R&D Systems (DY3614). In this assay, for production of samples, subconfluent HDFa cells from Cascade Biologics (C-13-5C) were incubated at 37° C. and 10% CO2 in starvation medium (0.15% fetal bovine serum and 1% Penicillin Streptomycin solution in Dulbecco's Modified Eagle Medium) for 72 hours prior to treatment. The cells were then incubated with fresh starvation medium with either test compound, positive control (phorbol 12-myristate 13-acetate from Sigma-Aldrich (P1585) and platelet derived growth factor from Sigma-Aldrich (P3201)), or no additive for 24 hours. Media was then collected and frozen at −80° C. until use in the ELISA assay.
Briefly, the ELISA assay employed a quantitative sandwich enzyme immunoassay technique whereby a capture antibody specific for HA can be pre-coated onto a microplate. Standards and media from treated and untreated cells were pipetted into the microplate wells to enable any HA present to be bound by the immobilized antibody. After washing away any unbound substances, an enzyme-linked detection antibody specific for HA was added to the wells. Following a wash to remove any unbound antibody-enzyme reagent, a substrate solution was added to the wells to allow color development in proportion to the amount of HA bound in the initial step. The color development was stopped at a specific time and the intensity of the color at 450 nm was measured using a microplate reader.

procollagen peptide = experiment: Collagen stimulation: procollagen peptide production by human epidermal fibroblasts (ELISA); conditions: for Collagen Production, Activity compared to control: human fibroblasts treated 3 days
Source text: Collagen is an extracellular matrix protein critical for skin structure. Increased synthesis of collagen helps improve skin firmness and elasticity. This bioassay was used to examine the effect of Alpinia galangal leaf extract, dihydroxymethyl chromone, tripeptide-1, Alteromonas ferment filtrate, Pisum Sativum (pea) extract, and/or TAUT on the production of procollagen peptide (a precursor to collagen) by human epidermal fibroblasts. The endpoint of this assay was a spectrophotometric measurement that reflects the presence of procollagen peptide and cellular viability. The assay employed the quantitative sandwich enzyme immunoassay technique whereby a monoclonal antibody specific for procollagen peptide had been pre-coated onto a microplate. Standards and samples were pipetted into the wells and any procollagen peptide present was bound by the immobilized antibody. After washing away any unbound substances, an enzyme-linked polyclonal antibody specific for procollagen peptide was added to the wells. Following a wash to remove any unbound antibody-enzyme reagent, a substrate solution was added to the wells and color develops in proportion to the amount of procollagen peptide bound in the initial step using a microplate reader for detection at 450 nm. The color development was stopped and the intensity of the color was measured.
For generation of samples and controls, subconfluent normal human adult epidermal fibroblasts (Cascade Biologics) cultivated in standard DMEM growth medium with 10% fetal bovine serum (Mediatech) at 37° C. in 10% CO2, were treated with each of the ingredients for 3 days. Following incubation, cell culture medium was collected and the amount of procollagen peptide secretion quantified using a sandwich enzyme linked immuno-sorbant assay (ELISA) from Takara (# MK101).

TNF-α = experiment: Inhibition of TNF-α production by PMA-treated human epidermal keratinocytes (ELISA)
Source text: The prototype ligand of the TNF superfamily, TNF-α, is a pleiotropic cytokine that plays a central role in inflammation. Increase in its expression is associated with an up regulation in pro-inflammatory activity. This bioassay was used to analyze the effect of tetradecyl aminobutyroylvalylaminobutyric urea trifluoroacetate, and/or Alteromonas ferment filtrate on the production of TNF-α by human epidermal keratinocytes. The endpoint of this assay was a spectrophotometric measurement that reflects the presence of TNF-α and cellular viability. The assay employed the quantitative sandwich enzyme immunoassay technique whereby a monoclonal antibody specific for TNF-α has been pre-coated onto a microplate. Standards and samples were pipetted into the wells and any TNF-α present was bound by the immobilized antibody. After washing away any unbound substances, an enzyme-linked polyclonal antibody specific for TNF-α was added to the wells. Following a wash to remove any unbound antibody-enzyme reagent, a substrate solution was added to the wells and color develops in proportion to the amount of TNF-α bound in the initial step using a microplate reader for detection at 450 nm. The color development was stopped and the intensity of the color can be measured. […]

fibronectin = experiment: Fibronectin secretion by cultured human fibroblasts (ELISA); conditions: 3 days, 1.0% final concentration
Source text: Laminin and fibronectin are major proteins in the dermal-epidermal junction (DEJ) (also referred to as the basement membrane). The DEJ is located between the dermis and the epidermis interlocks forming fingerlike projections called rete ridges. The cells of the epidermis receive their nutrients from the blood vessels in the dermis. The rete ridges increase the surface area of the epidermis that is exposed to these blood vessels and the needed nutrients. The DEJ provides adhesion of the two tissue compartments and governs the structural integrity of the skin. Laminin and fibronectin are two structural glycoproteins located in the DEJ. […] Laminin and fibronectin secretion was monitored by quantifying laminin and fibronectin in cell supernatants of cultured human fibroblasts treated for 3 days with culture medium with or without 1.0% final concentration of the test ingredient(s). Following incubation, laminin and fibronectin contents were measured using immunofluorescent antibodies directed against each protein in an enzyme linked immuno-sorbant assay (ELISA). Measurements were normalized for cellular metabolic activity, as determined by bioconversion of 3-(4,5-dimethylthiazol-2-yl)-5-(3-carboxymethoxyphenyl)-2-(4-sulfophenyl)-2H-tetrazolium (MTS).

Row | Compound | production of hyaluronic acid (in words) (hyaluronic acid) | Hyaluronic Acid Production, Activity compared to control (hyaluronic acid) | production of collagen (in words) (procollagen peptide) | Collagen Production, Activity compared to control (procollagen peptide) | production of TNF-α (in words) (TNF-α) | TNF-α Production, Activity compared to control (TNF-α; compared to PMA, human keratinocytes, PMA 10 ng/ml, 6 hours) [%] | Fibronectin Secretion, Activity compared to control (fibronectin)
1 | tripeptide-1 | increases | +93% | increases | +20% |  |  | 
2 | tetradecyl aminobutyroylvalylaminobutyric urea trifluoroacetate [TAUT] | increases | +64% | increases | +18% | inhibits | −100 | 
3 | Cc1cc(=O)c2c(O)cc(O)cc2o1 [dihydroxymethyl chromone] |  |  |  | +20% |  |  | +28%
